Assay [1] deals with MV4-11 cells. The assay is described as follows: Cell proliferation assay (ATPlite). Format: cell-based. The settings on record: Homo sapiens, MV4-11, 120 h; MV-411 cells, five days; read-out: In vitro whole cell potency in MV-411 cells, (IC50). The procedure: (iv) Cell Proliferation Assay
MV4-11 cells were seeded into a 96-well plate at 1,000 cells/well in 150 μl medium (Alpha-MEM containing 10% FBS, 100 μg/ml Normocin, and 50 μg/ml Gentamycin, Invitrogen). A HP D300 digital dispenser was used to dose cells with DMSO or test compounds across a 10-point range of concentrations (high dose of 10 μM), and cultures were grown in a humidified 5% CO2 incubator at 37° C. After five days, plates were removed from the incubator and equilibrated to room temperature. An equal volume of ATPlite assay reagent was added to each well, and samples were processed according to manufacturer's instructions (Perkin Elmer). Luminescent signal was measured using an Envision plate reader equipped with a US-Luminescence detector.
Background: In ATP-based viability assays light output follows the ATP content of the culture.

Assay [2] concerns the target WDR5 (Homo sapiens (Human), UniProt P61964). The assay is described as follows: Surface Plasmon Resonance (SPR) assay, KD and residence time. It is filed as binding. The settings on record: surface plasmon resonance (SPR); read-out: WDR5 binding affinity (KD). For orientation: SPR reads the build-up and loss of mass on a sensor chip optically.

The results in this text go back to patent publication US11319299B2, “Substituted carboxamides as inhibitors of WDR5 protein-protein binding” (PROPELLON THERAPEUTICS INC., priority 2016, dated 2022).

Where only a bound is given, the exact number is not on record here.

As usually defined, the IC50 is the concentration at which inhibition is half-maximal. In the case of `CC1CN(c2cc(F)c(-c3ccc(N4CCOCC4)c(F)c3)cc2NC(=O)c2c[nH]c(=O)cc2C(F)(F)F)CCN1C` (stereo in doubt) [Example 201, N-[4-fluoro-5-(3-fluoro-4-morpholin-4-ylphenyl)-2-[(3R)-3,4-dimethylpiperazin-1-yl]phenyl]-6-oxo-4-(trifluoromethyl)-1H-pyridine-3-carboxamide], the IC50 in assay [1] is 113 nM.
On to `CC1CN(c2cc(F)c(-c3cnc(N4CCOCC4)nc3)cc2NC(=O)c2cn(C)c(=O)cc2C(F)F)CCN1C` (stereo in doubt) [Example 216, 4-(difluoromethyl)-N-[4-fluoro-5-(2-morpholin-4-ylpyrimidin-5-yl)-2-[(3R)-3,4-dimethylpiperazin-1-yl]phenyl]-1-methyl-6-oxopyridine-3-carboxamide], for which the IC50 in assay [1] came out at 388 nM.
For the compound `CN1CCN(c2cc(F)c(-c3cccc(CN4CCOCC4)c3)cc2NC(=O)c2c[nH]c(=O)cc2C(F)(F)F)CC1` [Example 2, N-[4-fluoro-2-(4-methylpiperazin-1-yl)-5-[3-(morpholin-4-ylmethyl)phenyl]phenyl]-6-oxo-4-(trifluoromethyl)-1H-pyridine-3-carboxamide], the IC50 in assay [1] stood at 2250 nM.
Take `CN1CCN(c2cc(F)c(-c3ccc(N4CCOCC4)nc3)cc2NC(=O)c2c[nH]c(=O)cc2C(F)(F)F)CC1` [Example 4, N-(4-fluoro-2-(4-methylpiperazin-1-yl)-5-(6-morpholinopyridin-3-yl)phenyl)-6-oxo-4-(trifluoromethyl)-1,6-dihydropyridine-3-carboxamide]: in assay [1], the IC50 turned out to be 574 nM.
Consider `CN1CCN(c2cc(F)c(-c3ccc4c(c3)OCO4)cc2NC(=O)c2c[nH]c(=O)cc2C(F)(F)F)CC1` [Example 5, N-(5-(benzo[d][1,3]dioxol-5-yl)-4-fluoro-2-(4-methylpiperazin-1-yl)phenyl)-6-oxo-4-(trifluoromethyl)-1,6-dihydropyridine-3-carboxamide], for which, in assay [1], the IC50 came out at 881 nM.
The same measure, in the same setting: with `CN1CCN(c2cc(F)c(-c3cnc(N4CCCC4)nc3)cc2NC(=O)c2c[nH]c(=O)cc2C(F)(F)F)CC1` [Example 9, N-(4-fluoro-2-(4-methylpiperazin-1-yl)-5-(2-(pyrrolidin-1-yl)pyrimidin-5-yl)phenyl)-6-oxo-4-(trifluoromethyl)-1,6-dihydropyridine-3-carboxamide] the figure was 507 nM; with `CN1CCN(c2cc(F)c(-c3cnc(NC4CC4)nc3)cc2NC(=O)c2c[nH]c(=O)cc2C(F)(F)F)CC1` [Example 10, N-(5-(2-(cyclopropylamino)pyrimidin-5-yl)-4-fluoro-2-(4-methylpiperazin-1-yl)phenyl)-6-oxo-4-(trifluoromethyl)-1,6-dihydropyridine-3-carboxamide], greater than 10000 nM.
Regarding `CN1CCN(c2cc(F)c(-c3cnc(NC4CCCCC4)nc3)cc2NC(=O)c2c[nH]c(=O)cc2C(F)(F)F)CC1` [Example 11, N-(5-(2-(cyclohexylamino)pyrimidin-5-yl)-4-fluoro-2-(4-methylpiperazin-1-yl)phenyl)-6-oxo-4-(trifluoromethyl)-1,6-dihydropyridine-3-carboxamide], the IC50 in assay [1] came to 1270 nM.
Consider `CCOc1ncc(-c2cc(NC(=O)c3c[nH]c(=O)cc3C(F)(F)F)c(N3CCN(C)CC3)cc2F)cn1` [Example 12, N-(5-(2-ethoxypyrimidin-5-yl)-4-fluoro-2-(4-methylpiperazin-1-yl)phenyl)-6-oxo-4-(trifluoromethyl)-1,6-dihydropyridine-3-carboxamide], for which the IC50 in assay [1] amounted to 929 nM.
The same measure, in the same setting: the result for `Cc1ncc(-c2cc(NC(=O)c3c[nH]c(=O)cc3C(F)(F)F)c(N3CCN(C)CC3)cc2F)cn1` [Example 13, N-(4-fluoro-2-(4-methylpiperazin-1-yl)-5-(2-methylpyrimidin-5-yl)phenyl)-6-oxo-4-(trifluoromethyl)-1,6-dihydropyridine-3-carboxamide] reads greater than 10000 nM; that for `CN1CCN(c2cc(F)c(-c3ccc(NC4CCCCC4)nc3)cc2NC(=O)c2c[nH]c(=O)cc2C(F)(F)F)CC1` [Example 14, N-(5-(6-(cyclohexylamino)pyridin-3-yl)-4-fluoro-2-(4-methylpiperazin-1-yl)phenyl)-6-oxo-4-(trifluoromethyl)-1,6-dihydropyridine-3-carboxamide], 1520 nM; that for `CN1CCN(c2cc(F)c(-c3cnc(O)nc3)cc2NC(=O)c2c[nH]c(=O)cc2C(F)(F)F)CC1` [Example 15, N-(4-fluoro-5-(2-hydroxypyrimidin-5-yl)-2-(4-methylpiperazin-1-yl)phenyl)-6-oxo-4-(trifluoromethyl)-1,6-dihydropyridine-3-carboxamide], greater than 10000 nM.
For the compound `CN1CCN(c2cc(F)c(-c3cnc(C#N)nc3)cc2NC(=O)c2c[nH]c(=O)cc2C(F)(F)F)CC1` [Example 16, N-(5-(2-cyanopyrimidin-5-yl)-4-fluoro-2-(4-methylpiperazin-1-yl)phenyl)-6-oxo-4-(trifluoromethyl)-1,6-dihydropyridine-3-carboxamide], in assay [1], the IC50 was 844 nM.
The same measure, in the same setting: the result for `CN1CCN(c2cc(F)c(-c3cnc(N4CCOCC4)nc3)cc2NC(=O)c2c[nH]c(=O)cc2C(F)F)CC1` [Example 20, 4-(difluoromethyl)-N-(4-fluoro-2-(4-methylpiperazin-1-yl)-5-(2-morpholinopyrimidin-5-yl)phenyl)-6-oxo-1,6-dihydropyridine-3-carboxamide] reads 604 nM; that for `CN(C)C1CCN(c2cc(F)c(-c3cnc(N4CCOCC4)nc3)cc2NC(=O)c2c[nH]c(=O)cc2C(F)(F)F)C1` (stereo not shown) [Example 21, N-[2-[3-(dimethylamino)pyrrolidin-1-yl]-4-fluoro-5-(2-morpholin-4-ylpyrimidin-5-yl)phenyl]-6-oxo-4-(trifluoromethyl)-1H-pyridine-3-carboxamide], 271 nM.
A word on the Kd: it is the constant that tells how readily two partners part at equilibrium. Regarding `C[C@@H]1CN(c2cc(F)c(-c3ncc(CN4CCOCC4)s3)cc2NC(=O)c2c[nH]c(=O)cc2C(F)(F)F)C[C@H](C)N1C` [Example 751, N-[4-fluoro-5-[5-(morpholin-4-ylmethyl)-1,3-thiazol-2-yl]-2-[(3R,5S)-3,4,5-trimethylpiperazin-1-yl]phenyl]-6-oxo-4-(trifluoromethyl)-1H-pyridine-3-carboxamide], in assay [2], the Kd was determined as 8.27 nM.
Same read-out and setting: with `C[C@@H]1CN(c2cc(F)c(-c3cc(F)c(C(=O)N(C)C4CCCCC4)c(F)c3)cc2NC(=O)c2c[nH]c(=O)cc2C(F)(F)F)C[C@H](C)N1C` [Example 760, N-(4′-(cyclohexyl(methyl)carbamoyl)-3′,5′,6-trifluoro-4-((3S,5R)-3,4,5-trimethylpiperazin-1-yl)-[1,1′-biphenyl]-3-yl)-6-oxo-4-(trifluoromethyl)-1,6-dihydropyridine-3-carboxamide] the figure was 2 nM.
On to `C[C@@H]1CN(c2cc(F)c(-c3cc(F)c(C(=O)N(C)C4CCCC4)c(F)c3)cc2NC(=O)c2c[nH]c(=O)cc2C(F)(F)F)C[C@H](C)N1C` [Example 761, N-(4′-(cyclopentyl(methyl)carbamoyl)-3′,5′,6-trifluoro-4-((3S,5R)-3,4,5-trimethylpiperazin-1-yl)-[1,1′-biphenyl]-3-yl)-6-oxo-4-(trifluoromethyl)-1,6-dihydropyridine-3-carboxamide], for which the Kd in assay [2] is 2 nM.
The same measure, in the same setting: the result for `C[C@@H]1CN(c2cc(F)c(-c3cc(F)c(C(=O)N[C@@H]4CCOC4)c(F)c3)cc2NC(=O)c2c[nH]c(=O)cc2C(F)(F)F)C[C@H](C)N1C` [Example 762, 6-oxo-N-(3′,5′,6-trifluoro-4′-(((R)-tetrahydrofuran-3-yl)carbamoyl)-4-((3S,5R)-3,4,5-trimethylpiperazin-1-yl)-[1,1′-biphenyl]-3-yl)-4-(trifluoromethyl)-1,6-dihydropyridine-3-carboxamide] reads 0.9 nM; that for `C[C@@H]1CN(c2cc(F)c(-c3cc(F)c(C(=O)N(C)C4COC4)c(F)c3)cc2NC(=O)c2c[nH]c(=O)cc2C(F)(F)F)C[C@H](C)N1C` [Example 763, 6-oxo-N-(3′,5′,6-trifluoro-4′-(methyl(oxetan-3-yl)carbamoyl)-4-((3S,5R)-3,4,5-trimethylpiperazin-1-yl)-[1,1′-biphenyl]-3-yl)-4-(trifluoromethyl)-1,6-dihydropyridine-3-carboxamide], 0.7 nM.
On the same count and under the same terms, with “N-[4-fluoro-5-[2-[(2R)-2-propan-2-ylmorpholin-4-yl]pyrimidin-5-yl]-2-[(3S,5R)-3,4,5-trimethylpiperazin-1-yl]phenyl]-6-oxo-4-(trifluoromethyl)-1H-pyridine-3-carboxamide [Example 548]” the figure was 0.5 nM.
Same read-out and setting: the result for “N-[4-fluoro-5-[2-[(2R,6S)-2,6-dimethylmorpholin-4-yl]pyrimidin-4-yl]-2-[(3R)-3,4-dimethylpiperazin-1-yl]phenyl]-6-oxo-4-(trifluoromethyl)-1H-pyridine-3-carboxamide [Example 698]” reads 1.59 nM; that for “N-[5-[1-(2-cyanopyrimidin-4-yl)-3,6-dihydro-2H-pyridin-5-yl]-4-fluoro-2-[(3R)-3,4-dimethylpiperazin-1-yl]phenyl]-4-(difluoromethyl)-6-oxo-1H-pyridine-3-carboxamide [Example 740]”, 4.47 nM.
Take “N-[5-[1-(5-cyano-1,3-thiazol-2-yl)-3,6-dihydro-2H-pyridin-4-yl]-4-fluoro-2-[(3R)-3,4-dimethylpiperazin-1-yl]phenyl]-4-fluoro-2-(trifluoromethyl)benzamide [Example 690]”: in assay [2], the Kd is 4.17 nM.
The same measure, in the same setting: with “N-[5-[2-[4-(cyclopropylmethyl)piperazin-1-yl]pyrimidin-5-yl]-4-fluoro-2-[(3R)-3,4-dimethylpiperazin-1-yl]phenyl]-4-fluoro-2-(trifluoromethyl)benzamide [Example 560]” the figure was 1.12 nM.
